According to patent US10087188B2, “Benzamide imidazopyrazine Btk inhibitors” (MERCK SHARP & DOHME CORP., priority 2014, dated 2018):

Tests used:
HeLa cells = test: [3H] Adenosine uptake assay; format: cell-based; conditions: Homo sapiens, HeLa, accumulation of tritiated adenosine into HeLa cells; compound concentration range 10 μM to 0.032 nM; read-out: ADU inhibition IC50 (adenosine uptake inhibition potency)
Experimental: Compounds are also screen in an adenosine uptake functional cellular assay using the protocol described below:
[^3H] Adenosine Uptake Assay Methods
Adenosine uptake activity was determined by monitoring the accumulation of tritiated adenosine into HeLa cells (ATCC catalog #CCL-2) using a PMT-based radiometric detection instrument. […] These cells were incubated overnight at 37° C. in a humidified atmosphere with 5% (v/v) CO2. After this time the growth medium was removed and replaced with 40 μL assay medium comprising: Hanks balanced salts solution (HBSS; Thermo Fisher Catalog #SH30268.01)+5% (v/v) FBS. Compound stock solutions in DMSO were diluted in assay medium to 2.5× final compound concentration maintaining a constant DMSO concentration of 0.25% (v/v). 40 μL of compound in assay medium was dispensed into individual wells of the Cytostar-T plates and the plates were incubated for 30 minutes under ambient laboratory conditions. Following this incubation, 20 μL of 500 nM[^3H] adenosine (American Radiolabeled Chemicals Inc. Catalog #ART0287) in assay medium was added and incubated for a further 60 minutes under ambient laboratory conditions. The amount of radiolabel accumulation was then determined using a Perkin Elmer Topcount NXT microplate reader. In brief, HeLa cells adhere to the bottom of the Cytostar-T plate, uptake of [^3H]adenosine into these cells brings the radiolabel into sufficient proximity to excite the scintillant in the base of the plates. These events are captured by single PMT, time-resolved coincidence counting. IC50 values were determined by 4 parameter robust fit of counts per second values vs. (Log10) compound concentrations.

[1] = target: BTK enzyme (recombinant full-length BTK, hBTK) (Homo sapiens (Human), UniProt Q06187); test: Btk enzyme activity assay, LANCE TR-FRET; format: biochemical; conditions: 50 pM hBTK, 2 μM biotin-A5-peptide, 25 μM ATP; 60 minute compound & enzyme incubation; read-out: BTK binding IC50
Experimental: Btk Enzyme Activity Assay Methods
BTK enzymatic activity was determined with the LANCE (Lanthanide Chelate Excite) TR-FRET (Time-resolved fluorescence resonance energy transfer) assay. […] After 60 minutes incubation with detection reagents, reaction plates were read on a PerkinElmer EnVision plate reader using standard TR-FRET protocol.

BTK enzyme (recombinant full-length BTK, hBTK), sequence (Q06187 whole entry): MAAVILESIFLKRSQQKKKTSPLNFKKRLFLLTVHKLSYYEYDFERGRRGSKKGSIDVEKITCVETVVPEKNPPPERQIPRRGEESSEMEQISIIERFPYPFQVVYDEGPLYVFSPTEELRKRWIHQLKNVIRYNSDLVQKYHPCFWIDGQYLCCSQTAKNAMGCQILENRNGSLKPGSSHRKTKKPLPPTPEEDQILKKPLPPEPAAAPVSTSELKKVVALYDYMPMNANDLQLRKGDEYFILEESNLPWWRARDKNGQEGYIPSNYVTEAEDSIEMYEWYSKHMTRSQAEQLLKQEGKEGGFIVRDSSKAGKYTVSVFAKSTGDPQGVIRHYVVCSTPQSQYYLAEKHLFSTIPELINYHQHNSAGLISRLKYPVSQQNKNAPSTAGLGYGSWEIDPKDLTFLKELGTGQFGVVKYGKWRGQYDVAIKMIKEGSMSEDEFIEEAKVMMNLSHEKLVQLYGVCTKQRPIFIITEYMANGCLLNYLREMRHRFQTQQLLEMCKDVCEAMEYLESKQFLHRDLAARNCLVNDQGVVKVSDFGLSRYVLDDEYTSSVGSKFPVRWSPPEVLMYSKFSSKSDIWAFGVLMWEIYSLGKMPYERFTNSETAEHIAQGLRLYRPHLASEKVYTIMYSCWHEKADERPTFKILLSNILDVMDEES

Row | SMILES | IC50 (HeLa cells) | IC50 [1]
1 | Nc1nccn2c(-c3ccc(C(=O)O)nc3)nc(-c3ccc(C(=O)Nc4cc(C(F)(F)F)ccn4)cc3)c12 [Example 29, 5-[8-amino-1-(4-{[4-(trifluoromethyl)pyridin-2-yl]carbamoyl}phenyl)imidazo[1,5-a]pyrazin-3-yl]pyridine-2-carboxylic acid] | 7500 nM | 11.3 nM
2 | C[C@]1(C(=O)O)CC[C@](C)(c2nc(-c3ccc(C(=O)Nc4cc(C(F)(F)F)ccn4)cc3)c3c(N)nccn32)CC1 [Example 30, trans-4-(8-amino-1-(4-((4-(trifluoromethyl)pyridin-2-yl)carbamoyl)phenyl)imidazo[1,5-a]pyrazin-3-yl)-1,4-dimethylcyclohexanecarboxylic acid] | 1450 nM | 0.74 nM
3 | Nc1nccn2c([C@@H]3CCN[C@H](C(=O)O)C3)nc(-c3ccc(C(=O)Nc4cc(C(F)(F)F)ccn4)cc3)c12 [Example 32, (2S,4R)-4-[8-amino-1-(4-{[4-(trifluoromethyl)pyridin-2-yl]carbamoyl}phenyl)imidazo[1,5-a]pyrazin-3-yl]piperidine-2-carboxylic acid] | 5910 nM | 2.2 nM
4 | Nc1nccn2c([C@@H]3CCN[C@@H](C(=O)O)C3)nc(-c3ccc(C(=O)Nc4cc(C(F)(F)F)ccn4)cc3)c12 [Example 33, (2R,4R)-4-[8-amino-1-(4-{[4-(trifluoromethyl)pyridin-2-yl]carbamoyl}phenyl)imidazo[1,5-a]pyrazin-3-yl]piperidine-2-carboxylic acid] | 6800 nM | 4.4 nM
5 | Nc1nccn2c(C34CC(C(=O)O)(C3)C4)nc(-c3ccc(C(=O)Nc4cc(C(F)(F)F)ccn4)cc3)c12 [Example 34, 3-[8-amino-1-(4-{[4-(trifluoromethyl)pyridin-2-yl]carbamoyl}phenyl)imidazo[1,5-a]pyrazin-3-yl]bicyclo[1.1.1] pentane-1-carboxylic acid] | 6480 nM | 0.39 nM
6 | Nc1nccn2c(N3CC[C@@H](C(=O)O)C3)nc(-c3ccc(C(=O)Nc4cc(C(F)(F)F)ccn4)cc3)c12 [Example 36, (3R)-1-[8-amino-1-(4-{[4-(trifluoromethyl)pyridin-2-yl]carbamoyl}phenyl)imidazo[1,5-a]pyrazin-3-yl]pyrrolidine-3-carboxylic acid] | 4700 nM | 2.6 nM
7 | Nc1nccn2c(N3CC[C@H](C(=O)O)C3)nc(-c3ccc(C(=O)Nc4cc(C(F)(F)F)ccn4)cc3)c12 [Example 39, (3S)-1-[8-amino-1-(4-{[4-(trifluoromethyl)pyridin-2-yl]carbamoyl}phenyl)imidazo[1,5-a]pyrazin-3-yl]pyrrolidine-3-carboxylic acid] | 10000 nM | 0.91 nM
8 | C[C@@]1(C(=O)O)CCCN(c2nc(-c3ccc(C(=O)Nc4cc(C(F)(F)F)ccn4)cc3)c3c(N)nccn23)C1 [Example 41, (3R)-1-[8-amino-1-(4-{[4-(trifluoromethyl)pyridin-2-yl]carbamoyl}phenyl)imidazo[1,5-a]pyrazin-3-yl]-3-methylpiperidine-3-carboxylic acid] | 4290 nM | 7.6 nM
9 | C[C@]1(C(=O)O)CCCN(c2nc(-c3ccc(C(=O)Nc4cc(C(F)(F)F)ccn4)cc3)c3c(N)nccn23)C1 [Example 42, (3S)-1-[8-amino-1-(4-{[4-(trifluoromethyl)pyridin-2-yl]carbamoyl}phenyl)imidazo[1,5-a]pyrazin-3-yl]-3-methylpiperidine-3-carboxylic acid] | 2770 nM | 22.9 nM
10 | CC(C)(C(=O)O)N1CC(=O)N2C[C@H](c3nc(-c4ccc(C(=O)Nc5cc(C(F)(F)F)ccn5)cc4)c4c(N)nccn34)CC[C@H]2C1 [Example 43, 2-{(7R,9aS)-7-[8-amino-1-(4-{[4-(trifluoromethyl)pyridin-2-yl]carbamoyl}phenyl)imidazo[1,5-a]pyrazin-3-yl]-4-oxooctahydro-2H-pyrido[1,2-a]pyrazin-2-yl}-2-methylpropanoic acid] | 4190 nM | 0.41 nM
11 | C[C@@]1(C(=O)O)CCN(c2nc(-c3ccc(C(=O)Nc4cc(C(F)(F)F)ccn4)cc3)c3c(N)nccn23)C1 [Example 44, (3R)-1-[8-amino-1-(4-{[4-(trifluoromethyl)pyridin-2-yl]carbamoyl}phenyl)imidazo[1,5-a]pyrazin-3-yl]-3-methylpyrrolidine-3-carboxylic acid] | 8740 nM | 1.8 nM
12 | C[C@]1(C(=O)O)CCN(c2nc(-c3ccc(C(=O)Nc4cc(C(F)(F)F)ccn4)cc3)c3c(N)nccn23)C1 [Example 45, (3S)-1-[8-amino-1-(4-{[4-(trifluoromethyl)pyridin-2-yl]carbamoyl}phenyl)imidazo[1,5-a]pyrazin-3-yl]-3-methylpyrrolidine-3-carboxylic acid] | 10000 nM | 1.4 nM
13 | Nc1nccn2c([C@H]3CC[C@@H](CC(=O)O)C3)nc(-c3ccc(C(=O)Nc4cc(C(F)(F)F)ccn4)cc3)c12 [Example 50, {(1R,3S)-3-[8-amino-1-(4-{[4-(trifluoromethyl)pyridin-2-yl]carbamoyl}phenyl)imidazo[1,5-a]pyrazin-3-yl]cyclopentyl}acetic acid] | 3700 nM | 0.26 nM
14 | Nc1nccn2c([C@H]3CC[C@H](CC(=O)O)C3)nc(-c3ccc(C(=O)Nc4cc(C(F)(F)F)ccn4)cc3)c12 [Example 51, {(1S,3S)-3-[8-amino-1-(4-{[4-(trifluoromethyl)pyridin-2-yl]carbamoyl}phenyl)imidazo[1,5-a]pyrazin-3-yl]cyclopentyl}acetic acid] | 4000 nM | 0.29 nM
15 | CCOc1cc(C(=O)Nc2cc(C(F)(F)F)n(C)n2)ccc1-c1nc([C@@H]2CC[C@@](C(=O)O)(C(C)C)C2)n2ccnc(N)c12 [Example 52, (1S,3R)-3-[8-amino-1-(2-ethoxy-4-{[1-methyl-5-(trifluoromethyl)-1H-pyrazol-3-yl]carbamoyl}phenyl)imidazo[1,5-a]pyrazin-3-yl]-1-(1-methylethyl) cyclopentane-carboxylic acid] | 10000 nM | 9 nM
16 | CCOc1cc(C(=O)Nc2cc(C(F)(F)F)n(C)n2)ccc1-c1nc([C@H]2CC[C@@](C(=O)O)(C(C)C)C2)n2ccnc(N)c12 [Example 53, (1S,3S)-3-[8-amino-1-(2-ethoxy-4-{[1-methyl-5-(trifluoromethyl)-1H-pyrazol-3-yl]carbamoyl}phenyl)imidazo[1,5-a]pyrazin-3-yl]-1-(1-methylethyl) cyclopentane-carboxylic acid] | 10000 nM | 0.87 nM
17 | Nc1nccn2c([C@@H]3CC[C@H](CC(=O)O)C3)nc(-c3ccc(C(=O)Nc4cc(C(F)(F)F)ccn4)cc3)c12 [Example 54, {(1S,3R)-3-[8-amino-1-(4-{[4-(trifluoromethyl)pyridin-2-yl]carbamoyl}phenyl)imidazo[1,5-a]pyrazin-3-yl]cyclopentyl}acetic acid] | 10000 nM | 0.18 nM
18 | Nc1nccn2c([C@@H]3CC[C@H]4[C@H](C(=O)O)[C@H]43)nc(-c3ccc(C(=O)Nc4cc(C(F)(F)F)ccn4)cc3)c12 [Example 56, (1R,2R,5R,6S)-2-[8-amino-1-(4-{[4-(trifluoromethyl)pyridin-2-yl]carbamoyl}phenyl)imidazo[1,5-a]pyrazin-3-yl]bicyclo[3.1.0]hexane-6-carboxylic acid] | 10000 nM | 0.52 nM
19 | Nc1nccn2c([C@H]3CC[C@H]4[C@H](C(=O)O)[C@H]43)nc(-c3ccc(C(=O)Nc4cc(C(F)(F)F)ccn4)cc3)c12 [Example 57, (1R,2S,5R,6S)-2-[8-amino-1-(4-{[4-(trifluoromethyl)pyridin-2-yl]carbamoyl}phenyl)imidazo[1,5-a]pyrazin-3-yl]bicyclo[3.1.0] hexane-6-carboxylic acid] | 10000 nM | 3.2 nM
20 | CCOc1cc(C(=O)Nc2cc(C(F)(F)F)n(C)n2)ccc1-c1nc([C@H]2CC[C@](C(=O)O)(C(C)C)C2)n2ccnc(N)c12 [Example 58, (1R,3S)-3-[8-amino-1-(2-ethoxy-4-{[1-methyl-5-(trifluoromethyl)-1H-pyrazol-3-yl]carbamoyl}phenyl)imidazo[1,5-a]pyrazin-3-yl]-1-(1-methylethyl) cyclopentane-carboxylic acid] | 10000 nM | 27.6 nM
21 | CCOc1cc(C(=O)Nc2cc(C(F)(F)F)n(C)n2)ccc1-c1nc([C@@H]2CC[C@](C(=O)O)(C(C)C)C2)n2ccnc(N)c12 [Example 59, (1R,3R)-3-[8-amino-1-(2-ethoxy-4-{[1-methyl-5-(trifluoromethyl)-1H-pyrazol-3-yl]carbamoyl}phenyl)imidazo[1,5-a]pyrazin-3-yl]-1-(1-methylethyl) cyclopentane-carboxylic acid] | 10000 nM | 24.1 nM
